Experimental data: patent US20060052370A1, “Methods and compositions for treating nociceptive pain” (priority 2004, published 2006)
“Also recorded” adds a separate entry of the source. Where two headings read alike, the source gives them in different places.

Tests used:
[1] = humans; cited from earlier work
[2] = humans; cited from earlier work; remark: listed apart in the source
[3] = memantine and morphine combination

| SMILES | Human PK (t½) [1] [h] | Tmax [1] [h] | Dose Dependent Tox [2] | cum. fraction ([3]; Time 1) | cum. fraction ([3]; Time 2) | cum. fraction ([3]; Time 4) | cum. fraction ([3]; Time 8) | cum. fraction ([3]; Time 12) | cum. fraction ([3]; Time 16) | cum. fraction ([3]; Time 20) | cum. fraction ([3]; Time 24) |
| --- | --- | --- | --- | --- | --- | --- | --- | --- | --- | --- | --- |
| NC12CC3CC(CC(C3)C1)C2 [Amantadine, 1-amino-adamantane] | 15 | 3 | – | – | – | – | – | – | – | – | – |
| CC12CC3CC(C)(C1)CC(N)(C3)C2 [Memantine, 1-amino-3,5-dimethyladamantane] | – | 3 | Dose escalation; also recorded: hallucination | 0.2 | 0.3 | 0.4 | 0.5 | 0.6 | 0.7 | 0.8 | 0.9 |
| CN1CC[C@]23c4c5ccc(O)c4O[C@H]2[C@@H](O)C=C[C@H]3[C@H]1C5 [Morphine] | – | – | – | 0.2 | 0.3 | 0.4 | 0.5 | 0.6 | 0.7 | 0.8 | 0.9 |
| CC(N)C12CC3CC(CC(C3)C1)C2 (stereo not shown) [Rimantadine, 1-(1-aminoethyl)adamantane] | 25 | 6 | – | – | – | – | – | – | – | – | – |
